This is an account of results in patent publication US9458092B2, “α-Substituted glycinamide derivative” (KISSEI PHARMACEUTICAL CO., LTD., priority 2013, dated 2016).

The target of data set [1] is T1, TRPM8 (Rattus norvegicus, UniProt Q8R455). The data set is described as follows: Confirmation test of inhibitory effects on icilin-induced wet-dog shakes. The data set is classed as in vivo, female SD rats. The arrangement: test compounds were orally administered to female SD rats; from tissue; host or cells: whole animal (female SD rats), endogenous channel. The note with it: icilin 1 mg/kg i.p. after 1 hour, shakes counted for 5 minutes. The procedure:
Test compounds were dissolved in dimethylacetamide (wako), and 0.5% methylcellulose solution (wako) was added to make the solution or suspension containing 5% of dimethylacetamide. At a dose of 3 or 10 mg/kg/5 mL of test compounds were orally administered to female SD rats. After 1 hour, wet-dog shakes were induced by the intrapenitoneal injection of icilin (1 mg/kg) which was dissolved in polyethylene glycol 400 (wako). From 5 minutes after the administration of icilin, wet-dog shakes were counted for 5 minutes. For control example, vehicle (a mixture of dimethylacetamide (wako): 0.5% methylcellulose (wako)=5:95) was administrated similarly, and the number of wet-dog shakes was counted in the same manner. A percent inhibition of wet-dog shakes by test compound was calculated from the following formula: [1-(test compound wet-dog shake count/vehicle wet-dog shake count)]×100.

The subject of data set [2] is overactive bladder induced by acetic acid. The data set is described as follows: Confirmation test of elongation action of micturition interval of overactive bladder induced by acetic acid. It counts as in vivo, female SD rats. The following applies: Rattus norvegicus, iv, interval before administration = 100%. The procedure: Urethane (sigma) was dissolved into pure water by 25% w/v, and female SD rats were anesthetized with 1.25 g/kg urethane by subcutaneous administration. Cannulae were placed in femoral vein and bladder, and the bladder cannula was connected to both a syringe pump and a pressure transducer. Detrusor overactivity was induced by intravesical infusion of 0.25% acetic acid in saline at a rate of 3.6 mL/h, and intravesical pressure was monitored via pressure transducer concurrently. Test compounds were dissolved into a mixture of dimethylacetamide and saline (20:80), and were administered via the femoral vein. When an average of the three micturition interval before administration was taken as 100%, an average of the three micturition interval after administration was calculated as Elongation of micturition interval (%) Dose and results are shown in tables 46 and 47.

Data set [3] has as its target T1, TRPM8. The following applies: cited from earlier work.
[4] abbreviates: 1 mg/kg/ml via the femoral vein.
Where [5] appears, read: 1 mg/kg/2 ml via the femoral vein.

Each structure is given as a SMILES string.

T1 sequence (Q8R455 whole entry): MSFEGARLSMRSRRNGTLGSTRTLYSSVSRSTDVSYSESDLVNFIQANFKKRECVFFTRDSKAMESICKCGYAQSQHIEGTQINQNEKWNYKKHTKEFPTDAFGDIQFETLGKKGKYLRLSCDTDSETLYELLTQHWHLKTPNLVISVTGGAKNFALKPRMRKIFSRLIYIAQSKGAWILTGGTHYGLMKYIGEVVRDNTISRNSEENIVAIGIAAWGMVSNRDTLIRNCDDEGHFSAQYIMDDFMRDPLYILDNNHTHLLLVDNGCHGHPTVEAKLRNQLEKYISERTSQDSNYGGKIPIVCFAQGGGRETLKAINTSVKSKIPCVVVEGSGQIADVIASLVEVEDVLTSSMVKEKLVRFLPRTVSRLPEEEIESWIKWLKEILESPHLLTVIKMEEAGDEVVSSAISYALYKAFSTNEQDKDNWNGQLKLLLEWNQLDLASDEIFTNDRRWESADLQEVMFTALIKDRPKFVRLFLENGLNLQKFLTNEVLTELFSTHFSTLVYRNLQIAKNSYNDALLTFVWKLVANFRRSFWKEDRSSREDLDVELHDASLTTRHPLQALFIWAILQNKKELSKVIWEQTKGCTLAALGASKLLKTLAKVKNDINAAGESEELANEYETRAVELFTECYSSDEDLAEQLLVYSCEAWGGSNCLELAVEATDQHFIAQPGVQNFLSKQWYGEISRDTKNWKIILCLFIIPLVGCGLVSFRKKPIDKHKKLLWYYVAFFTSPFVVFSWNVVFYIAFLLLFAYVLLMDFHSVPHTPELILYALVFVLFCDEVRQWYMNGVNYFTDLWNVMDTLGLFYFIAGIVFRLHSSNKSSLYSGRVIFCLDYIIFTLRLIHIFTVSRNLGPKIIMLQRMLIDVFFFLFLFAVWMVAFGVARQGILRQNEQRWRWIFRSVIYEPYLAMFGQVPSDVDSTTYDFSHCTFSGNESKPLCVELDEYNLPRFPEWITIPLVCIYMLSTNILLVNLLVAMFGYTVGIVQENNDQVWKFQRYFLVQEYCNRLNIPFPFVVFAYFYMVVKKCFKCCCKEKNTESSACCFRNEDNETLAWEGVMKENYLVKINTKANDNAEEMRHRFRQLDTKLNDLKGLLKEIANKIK

Turning to `Cc1ncccc1C(=O)N([C@@H]1CCc2c(F)cc(Cl)cc21)[C@@H](C(N)=O)c1cccnc1` [Example 12, N-[(R)-carbamoylpyridin-3-ylmethyl]-N-[(R)-6-chloro-4-fluoroindan-1-yl]-2-methylnicotinamide], the “% inhibition of Wet-Dog Shake” value in data set [1] (dose 10 mg/kg orally) was determined as 93%. This molecule showed a response vs control in vivo at 1 mg/kg in data set [2] (setting [4]) of 142%.

For `NC(=O)[C@@H](c1ccccc1)N(C(=O)c1cccnc1)[C@@H]1CCc2c(F)cc(F)cc21` [Example 1-1, N-[(R)-Carbamoylphenylmethyl]-N-[(R)-4,6-difluoroindan-1-yl]nicotinamide], the “% inhibition of Wet-Dog Shake” value in data set [1] (dose 10 mg/kg orally) was 95%. This molecule had a response vs control in vivo at 1 mg/kg in data set [2] (setting [4]) of 209%.

Consider `Cc1ncccc1C(=O)N([C@@H]1CCc2c(F)cc(Cl)cc21)[C@@H](C(N)=O)c1ccccc1` [Example 14LP, N-[(R)-carbamoylphenylmethyl]-N-[(R)-6-chloro-4-fluoroindan-1-yl]-2-methylnicotinamide], for which the “% inhibition of Wet-Dog Shake” value in data set [1] (dose 3 mg/kg orally) was 100%. In data set [2] (setting [4]), this molecule gave a response vs control in vivo at 1 mg/kg of 181%.

With `NC(=O)[C@@H](c1cccnc1)N(C(=O)c1ccccc1)[C@@H]1CCc2c(F)cc(Cl)cc21` [Example 2-66LP, N-[(R)-carbamoylpyridin-3-ylmethyl]-N-[(R)-6-chloro-4-fluoroindan-1-yl]benzamide], the “% inhibition of Wet-Dog Shake” value in data set [1] (dose 10 mg/kg orally) is given as 100%. The molecule further had a response vs control in vivo at 1 mg/kg in data set [2] (setting [4]) of 175%.

With `NC(=O)[C@@H](c1ccccc1)N(C(=O)c1ccccc1N)[C@@H]1CCc2c(F)cc(F)cc21` [Example 6-1, 2-amino-N-[(R)-carbamoylphenylmethyl]-N-[(R)-4,6-difluoroindan-1-yl]benzamide], in data set [1] (dose 10 mg/kg orally), the “% inhibition of Wet-Dog Shake” value was found to be 89%. Moreover, the response vs control in vivo at 1 mg/kg in data set [2] (setting [5]) is 194%.

Consider `COc1ccc2c(c1)[C@H](N(C(=O)c1ccccc1)[C@@H](C(N)=O)c1ccccc1)CC2` [Example 2-4LP, N-[(R)-Carbamoylphenylmethyl]-N-[(R)-6-methoxyindan-1-yl]benzamide], for which the “% inhibition of Wet-Dog Shake” value in data set [1] (dose 10 mg/kg orally) is reported as 79%. Further, in data set [2] (setting [5]), the response vs control in vivo at 1 mg/kg is 156%.

`NC(=O)[C@@H](c1ccccc1)N(C(=O)c1cccnc1)[C@@H]1CCc2c(F)cc(Cl)cc21` [Example 2-23LP, N-[(R)-carbamoylphenylmethyl]-N-[(R)-6-chloro-4-fluoroindan-1-yl]nicotinamide]: in data set [1] (dose 3 mg/kg orally), the “% inhibition of Wet-Dog Shake” value is reported as 56%. The molecule also came in with a response vs control in vivo at 1 mg/kg in data set [2] (setting [4]) of 205%.

`Cc1cccc(COc2ccccc2C(=O)N(CCCN)Cc2cccs2)c1.Cl` [AMTB, N-(3-aminopropyl)-2-{[(3-methylphenyl)methyl]oxy}-N-(2-thienylmethyl)benzamide hydrochloride]: in data set [3] (anesthetized rats), the “frequency of rhythmic bladder contractions” value is “suppresses” and the “nociceptive reflex responses to bladder distension” value was “suppresses”. Moreover, the average blood pressure entry in data set [3] (rat, in vivo) was “decrease”.

Regarding `NC(=O)[C@@H](c1ccccc1)N(C(=O)c1cccnc1N)[C@@H]1CCc2c(F)cc(F)cc21` [Example 1-3, 2-Amino-N-[(R)-carbamoylphenylmethyl]-N-[(R)-4,6-difluoroindan-1-yl]nicotinamide], in data set [1] (dose 3 mg/kg orally), the “% inhibition of Wet-Dog Shake” value was 69%. In data set [2] (setting [4]), the response vs control in vivo at 1 mg/kg stood at 200%.

For the molecule `COc1ccccc1C(=O)N([C@@H]1CCc2c(F)cc(Cl)cc21)[C@@H](C(N)=O)c1ccccc1` [Example 2-89LP, N-[(R)-carbamoylphenylmethyl]-N-[(R)-6-chloro-4-fluoroindan-1-yl]-2-methoxybenzamide], in data set [1] (dose 3 mg/kg orally), the “% inhibition of Wet-Dog Shake” value is on record as 100%. This molecule also came in with a response vs control in vivo at 1 mg/kg in data set [2] (setting [5]) of 196%.

Turning to `COc1ncccc1C(=O)N([C@@H]1CCc2c(F)cc(Cl)cc21)[C@@H](C(N)=O)c1ccccc1` [Example 11, N-[(R)-carbamoylphenylmethyl]-N-[(R)-6-chloro-4-fluoroindan-1-yl]-2-methoxynicotinamide], in data set [1] (dose 3 mg/kg orally), the “% inhibition of Wet-Dog Shake” value came out at 100%. The molecule further returned a response vs control in vivo at 1 mg/kg in data set [2] (setting [4]) of 162%.

For the molecule `NC(=O)[C@@H](c1ccccc1)N(C(=O)c1cncc(F)c1)[C@@H]1CCc2c(F)cc(Cl)cc21` [Example 2-86LP, N-[(R)-carbamoylphenylmethyl]-N-[(R)-6-chloro-4-fluoroindan-1-yl]-5-fluoronicotinamide], the “% inhibition of Wet-Dog Shake” value in data set [1] (dose 10 mg/kg orally) is reported as 73%. For the same molecule, the response vs control in vivo at 1 mg/kg in data set [2] (setting [5]) was found to be 145%.

As to `NC(=O)[C@@H](c1ccccc1)N(C(=O)c1cccnc1N)[C@@H]1CCc2c(F)cc(Cl)cc21` [Example 13, 2-amino-N-[(R)-carbamoylphenylmethyl]-N-[(R)-6-chloro-4-fluoroindan-1-yl]nicotinamide], the “% inhibition of Wet-Dog Shake” value in data set [1] (dose 3 mg/kg orally) is 93%. For the same molecule, in data set [2] (setting [4]), the response vs control in vivo at 1 mg/kg was determined as 184%.

In the case of `Cc1ncccc1C(=O)N([C@@H]1CCc2c(F)cc(F)cc21)[C@@H](C(N)=O)c1ccccc1` [Example 2-131LP, N-[(R)-carbamoylphenylmethyl]-N-[(R)-4,6-difluoroindan-1-yl]-2-methylnicotinamide], the “% inhibition of Wet-Dog Shake” value in data set [1] (dose 3 mg/kg orally) is given as 100%. Besides, the response vs control in vivo at 1 mg/kg in data set [2] (setting [4]) is 162%.

Turning to `Cc1scnc1C(=O)N([C@@H]1CCc2c(F)cc(Cl)cc21)[C@@H](C(N)=O)c1ccccc1` [Example 2-147LP, N-[(R)-carbamoylphenylmethyl]-N-[(R)-6-chloro-4-fluoroindan-1-yl]-5-methylthiazole-4-carboxamide], in data set [1] (dose 3 mg/kg orally), the “% inhibition of Wet-Dog Shake” value was found to be 91%. In addition, the response vs control in vivo at 1 mg/kg in data set [2] (setting [5]) is 146%.

Regarding `NC(=O)[C@@H](c1ccccc1)N(C(=O)c1ccccc1)[C@@H]1CCc2ccc(Cl)cc21` [Example 2-2LP, N-[(R)-Carbamoylphenylmethyl]-N-[(R)-6-chloroindan-1-yl]benzamide], the “% inhibition of Wet-Dog Shake” value in data set [1] (dose 10 mg/kg orally) stood at 100%. In addition, the response vs control in vivo at 1 mg/kg in data set [2] (setting [5]) was found to be 221%.

With `Cc1ncsc1C(=O)N([C@@H]1CCc2c(F)cc(Cl)cc21)[C@@H](C(N)=O)c1ccccc1` [Example 15LP, N-[(R)-carbamoylphenylmethyl]-N-[(R)-6-chloro-4-fluoroindan-1-yl]-4-methylthiazole-5-carboxamide], in data set [1] (dose 3 mg/kg orally), the “% inhibition of Wet-Dog Shake” value amounted to 100%. In data set [2] (setting [4]), the response vs control in vivo at 1 mg/kg was 188%.

`NC(=O)[C@@H](c1ccccc1)N(C(=O)c1cccc2c1OCC2)[C@@H]1CCc2c(F)cc(Cl)cc21` [Example 2-111LP, N-[(R)-carbamoylphenylmethyl]-N-[(R)-6-chloro-4-fluoroindan-1-yl]-2,3-dihydrobenzofuran-7-carboxamide]: the “% inhibition of Wet-Dog Shake” value in data set [1] (dose 3 mg/kg orally) was 91%. The response vs control in vivo at 0.3 mg/kg in data set [2] (0.3 mg/kg/2 ml via the femoral vein) worked out at 135%.

Turning to `COc1ncccc1C(=O)N([C@@H]1CCc2ccc(Cl)cc21)[C@@H](C(N)=O)c1ccccc1` [Example 2-46LP, N-[(R)-carbamoylphenylmethyl]-N-[(R)-6-chloroindan-1-yl]-2-methoxynicotinamide], the “% inhibition of Wet-Dog Shake” value in data set [1] (dose 3 mg/kg orally) is 79%. Further, the response vs control in vivo at 1 mg/kg in data set [2] (setting [4]) was determined as 186%.

As for `NC(=O)[C@@H](c1ccccc1)N(C(=O)c1ccccc1)[C@@H]1CCc2c(F)cc(Cl)cc21` [Example 2-6LP, N-[(R)-carbamoylphenylmethyl]-N-[(R)-6-chloro-4-fluoroindan-1-yl]benzamide], the “% inhibition of Wet-Dog Shake” value in data set [1] (dose 3 mg/kg orally) was 69%. This molecule also yielded a response vs control in vivo at 0.3 mg/kg in data set [2] (0.3 mg/kg/ml via the femoral vein) of 184%.

Regarding `NC(=O)[C@@H](c1ccccc1)N(C(=O)c1cccnc1)[C@@H]1CCc2ccc(Cl)cc21` [Example 2-31LP, N-[(R)-carbamoylphenylmethyl]-N-[(R)-6-chloroindan-1-yl]nicotinamide], in data set [1] (dose 10 mg/kg orally), the “% inhibition of Wet-Dog Shake” value came to 87%. The molecule further came in with a response vs control in vivo at 1 mg/kg in data set [2] (setting [4]) of 176%.

Consider `NC(=O)[C@@H](c1ccccc1)N(C(=O)c1ccccc1)[C@@H]1CCc2c(F)cc(F)cc21` [Example 2-221LP, N-[(R)-carbamoylphenylmethyl]-N-[(R)-4,6-difluoroindan-1-yl]benzamide], for which, in data set [1] (dose 10 mg/kg orally), the “% inhibition of Wet-Dog Shake” value was determined as 100%. The response vs control in vivo at 1 mg/kg in data set [2] (setting [5]) was 154%.
